Assay results: paper PMC8911025, “Design, Synthesis, and Biological Evaluation of New Azulene-Containing Chalcones” (Materials, 2022)
≈ marks a conversion by molar mass, not a printed value.

Assays:
Format in all cases: cell-based
[1] = tested on: Escherichia coli ATCC 25922; assay: MIC, binary serial dilution in 96-well plates; details: ATCC25922; Escherichia coli ATCC 25922, 24 h at 37 °C
Description: (§1) The antimicrobial activity of all compounds was assessed on Gram-positive bacteria (Staphylococcus aureus ATCC 25923), Gram-negative bacteria (Escherichia coli ATCC 25922, Pseudomonas aeruginosa ATCC 27853), and fungi (Candida parapsilosis ATCC 22019) using quantitative binary serial dilution method in 96-well plates. The negative control was represented by wells with culture medium, while positive control was the microbial strain in broth. Briefly, binary serial dilutions of the compounds performed in 100 μL of broth were seeded with microbial inoculum of 10^6 colony forming units (CFU)/mL and incubated for 24 h at 37 °C. […] Due to the fact that the obtained compounds were colored, after the incubation of the 96-well plates, from each well, 10 µL were seeded on agar plates (Plate Count Agar) to determine the inhibitory concentration. The same value of the inhibitory concentration was obtained in repeated experiments.
(§2) The antibacterial effect of the azulene moiety introduced in the chalcone structure was investigated against Gram-positive (Staphylococcus aureus ATCC 25923) and Gram-negative (Escherichia coli ATCC 25922, Pseudomonas aeruginosa ATCC 27853) bacteria, while the antifungal effect was tested against Candida parapsilosis ATCC 22019. To our knowledge, the antibacterial activity of azulene-containing chalcone compounds has not been reported previously; moreover, this is the first investigation of the biological properties of azulene-containing chalcones in general. The results expressed in terms of minimum inhibitory concentration (MIC) were determined by in vitro screening of the antimicrobial properties using the broth microdilution method and are summarized in Table 5.

[2] = tested on: Staphylococcus aureus ATCC 25923; assay: MIC, binary serial dilution in 96-well plates; details: for MIC: ATCC25923, Staphylococcus aureus ATCC 25923, 24 h at 37 °C; for Aexp: Aexp = 0.1 + log (k/MIC), k = 1.250, compounds synthesized herein
Description: as §1, §2

[3] = tested on: Pseudomonas aeruginosa ATCC 27853; assay: MIC, binary serial dilution in 96-well plates; details: ATCC27853; Pseudomonas aeruginosa ATCC 27853, 24 h at 37 °C
Description: as §1, §2

[4] = Cell viability assay (CellTiter Glo); details: human; HEp-2 cells, 48 h, CellTiter Glo; read-out: IC50 (50% cytotoxic concentration)
Description: (§3) To assess the toxicity of the azulene-containing chalcones, the adherent cell line HEp-2 (American Cell Type Collection [ATCC] CCL-23^TM) was used.
(§4) In order to estimate the cytotoxicity of the compounds, HEp-2 cells (American Cell Type Collection (ATCC) CCL-23) were exposed to the azulene-containing chalcones at concentrations of 200, 100, 50, and 25 μg/mL and evaluated using CellTiter Glo kit (Promega, Madison, WI, USA) assay. The results presented in Figure 3 are expressed as viability percentages versus control.

Staphylococcus aureus = assay: Antibiofilm activity (crystal violet, A490); details: biofilm, read-out: MBEC
Description: (§5) The effect of the chalcones on the biofilm formation was evaluated after the determination of the MICs. Briefly, the plates were emptied, washed to remove the nonadherent cells, fixed with methanol, and stained with crystal violet. The antibiofilm activity was determined after adding 33% acetic acid solution by measuring the absorbance at 490 nm, and the results are listed in Table 6.
(§6) The azulene-chalcone derivatives were tested for their ability to affect biofilm formation since 80% of the world’s microbial biomass is found in the biofilm state. The most efficient compound was again chalcone 6 with MBEC of 0.156–0.625 mg/mL (Table 6).

Escherichia coli = assay: Antibiofilm activity (crystal violet, A490); details: biofilm, read-out: MBEC
Description: as §5, §6

Pseudomonas aeruginosa = assay: Antibiofilm activity (crystal violet, A490); details: biofilm, read-out: MBEC
Description: as §5, §6

Candida parapsilosis = assay: Antibiofilm activity (crystal violet, A490); details: Lodderomyces parapsilosis, biofilm, read-out: MBEC
Description: as §5, §6

NOS2 = assay: Gene expression quantification (qPCR); details: HEp-2, 100 µg/mL, 24 h
Description: (§7) The mechanism of azulene-containing chalcone toxicity was assessed by gene expression evaluation. HEp-2 cells were seeded in 6-well plates at a concentration of 3 × 10^5 cells/wells in DMEM:F12 supplemented with 10% FBS. The cells were treated with azulene-containing chalcone at a concentration of 100 µg/mL. After 24 h, the cells were harvested and centrifuged, and the pellet was subjected to total RNA extraction using Trizol reagent (Sigma, St. Louis, MO, USA). The cDNA was produced using 2 µg total RNA and High Capacity Reverse Transcription Kit (Thermo Fisher Scientific, Chelmsford, MA, USA). Fifty nanograms of cDNA was subjected to PCR reaction using Maxima SYBR Green/ROX qPCR Master Mix (Thermo Fisher Scientific, Chelmsford, MA, USA) and Origene primer pairs: caspase 3 (CAT#: HP207674) caspase 7 (CAT#: HP233752), caspase 8 (CAT#: HP234494), caspase 9 (CAT#: HP205155), caspase 10 (CAT#: HP228052). For NOX-4 and NOS2, the following primers were used: NOX 4 forward 5′-[…]-3 and reverse 5′-[…]-3′ and NOS2 forward 5′-[…]-3′ and reverse 5′-[…]-3′. Amplification was completed using StepOne Real-Time PCR System (Thermo Fisher Scientific, Chelmsford, MA, USA). The relative changes in the levels of mRNA expression were quantified by using the 2^−ΔΔCT method.
(§8) One of our approaches consisted of the analysis of NOS2 and NOX4 gene expression (Figure 6). […]

[5] = tested on: Candida parapsilosis ATCC 22019; assay: MIC (antifungal), binary serial dilution in 96-well plates; details: Lodderomyces parapsilosis, ATCC22019; Candida parapsilosis ATCC 22019, 24 h at 37 °C
Description: as §1, §2
We further tested the azulene-containing chalcone compounds for antifungal activity against Candida parapsilosis ATCC 22019.

caspase 8 = assay: Gene expression quantification (qPCR); details: HEp-2, 100 µg/mL, 24 h
Description: as §7
(§9) Production of procaspase 8 mRNA was inhibited by 7, 9, and 10, with an important role in extrinsic apoptosis induction remaining for caspase 10. Cellular stress induces intrinsic apoptosis by caspase 9 activation that stimulates the caspase cascade, culminating in activation of executioner caspases 3 and 7 [42]. The mRNA expression of caspase 9 was activated following the treatment with 100 µg/mL of compounds 1–8 but inhibited by 9 and 10.

caspase 9 = assay: Gene expression quantification (qPCR); details: HEp-2, 100 µg/mL, 24 h
Description: as §7, §9

HEp-2 cells [6] = assay: Cell cycle analysis (propidium iodide, flow cytometry)
Description: For cell cycle analysis, a suspension of 7.5 × 10^4 HEp-2 cells was seeded for 24 h in a 1 cm^2 well in DMEM:F12 containing 10% fetal bovine serum. After recovery, the cells were treated with 50 µg/mL or 100 µg/mL azulene-containing chalcone, and 24 h later, the cells were harvested, fixed in cold ethanol overnight, and stained with RNase A/propidium iodide at a concentration of 1 mg/mL to 100 µg/mL. The events were recorded using the Beckman Coulter flow cytometer and analyzed using FlowJo 7.2.5 software.
The cytotoxicity data were also confirmed by cell cycle analysis. Among the tested compounds, chalcone 10 induced an increase in the G2/M phase starting from a concentration of 50 µg/mL (Supplementary Material Figure S2), the effect increasing slightly with the concentration of the tested compound. The increase in the G2/M phase was also observed in the case of compound 9, but at a higher concentration (100 µg/mL), but this effect was lower (Figure 4).

caspase 7 = assay: Gene expression quantification (qPCR); details: HEp-2, 100 µg/mL, 24 h
Description: as §7
(§10) We observed that the expression of both executioner caspases, caspase 3 (Casp 3), and caspase 7 (Casp 7), was activated by azulene (Figure 5, right). The production of procaspase 3 and 7 mRNA in the case of compounds 9 and 10 was quite reduced, probably correlated with the decreased number of cells.

caspase 3 = assay: Gene expression quantification (qPCR); details: HEp-2, 100 µg/mL, 24 h
Description: as §7, §10

HEp-2 cells [7] = assay: Cell viability assay (CellTiter Glo); details: 25-200 μg/mL
Description: as §3, §4

biofilm formation = assay: Antibiofilm activity, summary over the tested strains; details: range over the tested strains (Table 6)
Description: as §5, §6

NOX4 = assay: Gene expression quantification (qPCR); details: HEp-2, 100 µg/mL, 24 h
Description: as §7, §8

Row | Structure (SMILES) | MIC [1] | MIC [2] | MIC [3] | MIC [5] | procaspase 8 mRNA production (caspase 8) | mRNA expression of caspase 9 (caspase 9) | procaspase 7 mRNA expression (caspase 7) | procaspase 3 mRNA expression (caspase 3) | Aexp [2] | IC50 at 48 h [4] | minimal effective concentration (Staphylococcus aureus) | minimal effective concentration (Escherichia coli) | minimal effective concentration (Pseudomonas aeruginosa) | minimal effective concentration (Candida parapsilosis) | NOS2 expression (NOS2) | effect on G2/M phase (HEp-2 cells [6]; HEp-2, 100 µg/mL) | cytotoxicity (HEp-2 cells [7]) | MBEC (biofilm formation) | effect on G2/M phase (HEp-2 cells [6]; HEp-2, starting from 50 µg/mL) | NOX4 activation (expression) (NOX4)
1 | O=C(/C=C/c1ccc2cccccc1-2)c1ccc2cccccc1-2 [Compound 6, (E)-1,3-Di(azulen-1-yl)prop-2-en-1-one] | 625 µg/mL (≈ 2030 µM) | 625 µg/mL (≈ 2030 µM) | 625 µg/mL (≈ 2030 µM) | 156 µg/mL (≈ 506 µM) |  |  |  |  | 0.401 | 78.6 µg/mL (≈ 255 µM) | 625 µg/mL | 625 µg/mL | 625 µg/mL | 156 µg/mL |  |  | low toxicity | 0.156 to 0.625 mg/mL |  | 
2 | O=C(/C=C/c1cc(Cl)c2cccccc1-2)c1ccc2cccccc1-2 [Compound 7, (E)-1-(Azulen-1-yl)-3-(3-chloroazulen-1-yl)prop-2-en-1-one] | 625 µg/mL (≈ 1820 µM) | 625 µg/mL (≈ 1820 µM) | 625 µg/mL (≈ 1820 µM) | 312 µg/mL (≈ 910 µM) | inhibited |  |  |  | 0.401 | 42.9 µg/mL (≈ 125 µM) | 625 µg/mL | 1250 µg/mL | 625 µg/mL | 312 µg/mL |  |  |  |  |  | minimal
3 | O=C(/C=C/c1ccc2cccccc1-2)c1cccc2ccccc12 [Compound 4, (E)-3-(Azulen-1-yl)-1-(naphthalen-1-yl)prop-2-en-1-one] | 625 µg/mL (≈ 2030 µM) | 1250 µg/mL (≈ 4050 µM) | 625 µg/mL (≈ 2030 µM) | 312 µg/mL (≈ 1010 µM) |  |  |  |  | 0.100 | 61.8 µg/mL (≈ 200 µM) | 1250 µg/mL | 625 µg/mL | 625 µg/mL | 625 µg/mL |  |  |  |  |  | 
4 | Nc1ccc(C(=O)/C=C/c2ccc3cccccc2-3)cc1 [Compound 3, (E)-1-(4-Aminophenyl)-3-(azulen-1-yl)prop-2-en-1-one] | 625 µg/mL (≈ 2290 µM) | 1250 µg/mL (≈ 4570 µM) | 625 µg/mL (≈ 2290 µM) | 312 µg/mL (≈ 1140 µM) |  |  |  |  | 0.100 | 114 µg/mL (≈ 415 µM) | 2500 µg/mL | 625 µg/mL | 1250 µg/mL | 625 µg/mL |  |  |  |  |  | 

The next lines start with results.

Row | MIC [1] | MIC [2] | MIC [3] | MIC [5] | procaspase 8 mRNA production (caspase 8) | mRNA expression of caspase 9 (caspase 9) | procaspase 7 mRNA expression (caspase 7) | procaspase 3 mRNA expression (caspase 3) | Structure (SMILES) | Aexp [2] | IC50 at 48 h [4] | minimal effective concentration (Staphylococcus aureus) | minimal effective concentration (Escherichia coli) | minimal effective concentration (Pseudomonas aeruginosa) | minimal effective concentration (Candida parapsilosis) | NOS2 expression (NOS2) | effect on G2/M phase (HEp-2 cells [6]; HEp-2, 100 µg/mL) | cytotoxicity (HEp-2 cells [7]) | MBEC (biofilm formation) | effect on G2/M phase (HEp-2 cells [6]; HEp-2, starting from 50 µg/mL) | NOX4 activation (expression) (NOX4)
5 | 625 µg/mL (≈ 1940 µM) | 1250 µg/mL (≈ 3880 µM) | 625 µg/mL (≈ 1940 µM) | 312 µg/mL (≈ 968 µM) | inhibited | inhibited | quite reduced | quite reduced | Cc1cc(/C=C/C(=O)c2ccc3cccccc2-3)c2cccccc1-2 [Compound 9, (E)-1-(Azulen-1-yl)-3-(3-methylazulen-1-yl)prop-2-en-1-one] | 0.100 | 52.5 µg/mL (≈ 163 µM) | 625 µg/mL | 625 µg/mL | 625 µg/mL | 312 µg/mL | reduced | increase |  |  |  | 
6 | 625 µg/mL (≈ 1940 µM) | 1250 µg/mL (≈ 3880 µM) | 625 µg/mL (≈ 1940 µM) | 312 µg/mL (≈ 968 µM) | inhibited | inhibited | quite reduced | quite reduced | Cc1cc(C(=O)/C=C/c2ccc3cccccc2-3)c2cccccc1-2 [Compound 10, (E)-3-(Azulen-1-yl)-1-(3-methylazulen-1-yl)prop-2-en-1-one] | 0.100 | 4.95 µg/mL (≈ 15.4 µM) | 1250 µg/mL | 625 µg/mL | 625 µg/mL | 312 µg/mL |  |  | most toxic |  | increase | 
7 | 625 µg/mL (≈ 2280 µM) | 1250 µg/mL (≈ 4560 µM) | 625 µg/mL (≈ 2280 µM) | 312 µg/mL (≈ 1140 µM) |  |  |  |  | O=C(/C=C/c1ccc2cccccc1-2)c1ccc(O)cc1 [Compound 2, (E)-3-(Azulen-1-yl)-1-(4-hydroxyphenyl)prop-2-en-1-one] | 0.100 | 97.5 µg/mL (≈ 355 µM) | 1250 µg/mL | 625 µg/mL | 625 µg/mL | 312 µg/mL |  |  |  |  |  | 
